Like-named read-outs stand apart in the source and are kept apart here.
Target: T1, Cannabinoid-1 receptor (CB1R) (Rattus norvegicus, UniProt P20272)
T1 construct: The tissue obtained from the brain of SD rats was homogenized; from tissue; host or cells: brain of SD rats (membrane pellet of the homogenate)
Experiment: Cannabinoid-1 receptor (CB1R) binding affinity assay ([3H]CP-55940, rat CB-1 receptor binding protocol)
Conditions: brain tissue of SD rats, [3H]CP-55940, 30° C. 60 min
Protocol: The tissue obtained from the brain of SD rats was homogenized with a Dounce homogenate system in TME (50 mM Tris, 3 mM MgCl2 and 1 mM EDTA, pH 7.4) at 4° C., and the homogenate was centrifuged at 48,000 g for 30 min. at 4° C. The pellet was resuspended in 5 ml of TME and the suspension was divided into aliquots and stored at −70° C. until its use in the following assay.
The tissue concentrations were determined by Bradford protein analysis, and 148 μl of brain tissue of the required concentration was added to the plate. The plate was covered and placed in a 30° C. incubator for 60 min, and then transformed on GF/B filtermat pretreated in polyethylenimine (PEI) using a cell harvester. Each filter was washed five times and dried at 60° C. for 1 hr. Then, the degree of radioactivity retained by the filter was measured using Wallac Microbeta™ (PerkinElmer Life Sciences, Inc., Massachusetts, U.S.A.) and the activity of the compound for inhibiting CB1 receptor was determined therefrom.

T1 sequence (P20272 whole entry): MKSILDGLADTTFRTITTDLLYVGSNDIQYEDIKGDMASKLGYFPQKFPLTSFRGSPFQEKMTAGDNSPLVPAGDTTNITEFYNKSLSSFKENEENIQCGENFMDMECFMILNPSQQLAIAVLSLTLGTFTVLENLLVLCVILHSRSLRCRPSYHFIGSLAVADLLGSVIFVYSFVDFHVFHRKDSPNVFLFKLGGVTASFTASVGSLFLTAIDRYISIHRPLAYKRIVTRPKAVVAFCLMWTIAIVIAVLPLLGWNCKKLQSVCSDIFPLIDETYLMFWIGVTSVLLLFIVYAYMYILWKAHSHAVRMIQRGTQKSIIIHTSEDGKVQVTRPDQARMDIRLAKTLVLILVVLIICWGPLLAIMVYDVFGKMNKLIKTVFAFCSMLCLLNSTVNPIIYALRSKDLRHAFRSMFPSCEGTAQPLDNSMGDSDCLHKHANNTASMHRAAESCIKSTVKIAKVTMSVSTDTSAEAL

| Molecule | IC50 (read-out: IC50) | IC50 (IC50(nM)) |
| --- | --- | --- |
| 2-(1-benzylcyclopropyl)-5-(5-(4-bromophenyl)-1-(2,4-dichlorophenyl)-4-ethyl-1H-pyrazol-3-yl)-1,3,4-oxadiazole [Example 271] | 5.88 nM | – |
| 2-(1-benzylcyclopropyl)-5-(5-(4-chlorophenyl)-1-(2,4-dichlorophenyl)-4-methyl-1H-pyrazol-3-yl)-1,3,4-thiadiazole [Example 467] | 14.8 nM | – |
| 2-(5-(4-chlorophenyl)-1-(2,4-dichlorophenyl)-4-methyl-1H-pyrazol-3-yl)-5-cyclohexyl-1,3,4-thiadiazole [Example 347] | 51.3 nM | – |
| 5-(5-(4-Chlorophenyl)-1-(2,4-dichlorophenyl)-4-methyl-1H-pyrazol-3-yl)-1-cycloheptyl-1H-tetrazole [Example 601] | 26.7 nM | – |
| 5-(5-(4-Chlorophenyl)-1-(2,4-dichlorophenyl)-4-methyl-1H-pyrazol-3-yl)-1-octyl-1H-tetrazole [Example 604] | 47.3 nM | – |
| Cc1c(-c2nnc(-c3ccncc3)o2)nn(-c2ccc(Cl)cc2Cl)c1-c1ccc(Cl)cc1 [Example 2, 2-(5-(4-chlorophenyl)-1-(2,4-dichlorophenyl)-4-methyl-1H-pyrazol-3-yl)-5-(pyridin-4-yl)-1,3,4-oxadiazole] | 563 nM | – |
| Cc1c(-c2nnc(-c3ccco3)o2)nn(-c2ccc(Cl)cc2Cl)c1-c1ccc(Cl)cc1 [Example 8, 2-(5-(4-chlorophenyl)-1-(2,4-dichlorophenyl)-4-methyl-1H-pyrazol-3-yl)-5-(furan-2-yl)-1,3,4-oxadiazole] | 112 nM | – |
| Cc1c(-c2nnc(-c3cnccn3)o2)nn(-c2ccc(Cl)cc2Cl)c1-c1ccc(Cl)cc1 [Example 10, 2-(5-(4-chlorophenyl)-1-(2,4-dichlorophenyl)-4-methyl-1H-pyrazol-3-yl)-5-(pyrazin-2-yl)-1,3,4-oxadiazole] | 196 nM | – |
| Cc1c(-c2nnc(-c3cccs3)o2)nn(-c2ccc(Cl)cc2Cl)c1-c1ccc(Cl)cc1 [Example 11, 2-(5-(4-chlorophenyl)-1-(2,4-dichlorophenyl)-4-methyl-1H-pyrazol-3-yl)-5-(thiophen-2-yl)-1,3,4-oxadiazole] | 96.6 nM | – |
| Cc1c(-c2nnc(-c3cc4ccccc4o3)o2)nn(-c2ccc(Cl)cc2Cl)c1-c1ccc(Cl)cc1 [Example 18, 2-(Benzofuran-2-yl)-5-(5-(4-chlorophenyl)-1-(2,4-dichlorophenyl)-4-methyl-1H-pyrazol-3-yl)-1,3,4-oxadiazole] | 333 nM | – |
| Cc1c(-c2nnc(CC3CCCC3)o2)nn(-c2ccc(Cl)cc2Cl)c1-c1ccc(Cl)cc1 [Example 22, 2-(5-(4-Chlorophenyl)-1-(2,4-dichlorophenyl)-4-methyl-1H-pyrazol-3-yl)-5-(cyclopentylmethyl)-1,3,4-oxadiazole] | 35.7 nM | – |
| Cc1c(-c2nnc(C3CCOCC3)o2)nn(-c2ccc(Cl)cc2Cl)c1-c1ccc(Cl)cc1 [Example 23, 2-(5-(4-Chlorophenyl)-1-(2,4-dichlorophenyl)-4-methyl-1H-pyrazol-3-yl)-5-(tetrahydro-2H-pyran-4-yl)-1,3,4-oxadiazole] | 163 nM | – |
| Cc1c(-c2nnc(CC3CCCCC3)o2)nn(-c2ccc(Cl)cc2Cl)c1-c1ccc(Cl)cc1 [Example 24, 2-(5-(4-Chlorophenyl)-1-(2,4-dichlorophenyl)-4-methyl-1H-pyrazol-3-yl)-5-(cyclohexylmethyl)-1,3,4-oxadiazole] | 22.7 nM | – |
| Cc1c(-c2nnc(C3CCCO3)o2)nn(-c2ccc(Cl)cc2Cl)c1-c1ccc(Cl)cc1 (centres unmarked) [Example 25, 2-(5-(4-Chlorophenyl)-1-(2,4-dichlorophenyl)-4-methyl-1H-pyrazol-3-yl)-5-(tetrahydrofuran-2-yl)-1,3,4-oxadiazole] | 60 nM | – |
| Cc1c(-c2nnc(C3CC4CCC3C4)o2)nn(-c2ccc(Cl)cc2Cl)c1-c1ccc(Cl)cc1 (centres unmarked) [Example 52, 2-(bicyclo[2.2.1]heptan-2-yl)-5-(5-(4-chlorophenyl)-1-(2,4-dichlorophenyl)-4-methyl-1H-pyrazol-3-yl)-1,3,4-oxadiazole] | 12.7 nM | – |
| Cc1c(-c2nnc(C(C)CC3CCC3)o2)nn(-c2ccc(Cl)cc2Cl)c1-c1ccc(Cl)cc1 (centres unmarked) [Example 54, 2-(5-(4-chlorophenyl)-1-(2,4-dichlorophenyl)-4-methyl-1H-pyrazol-3-yl)-5-(1-cyclobutylpropan-2-yl)-1,3,4-oxadiazole] | 11.2 nM | – |

| Molecule | IC50 (read-out: IC50) | IC50 (IC50(nM)) |
| --- | --- | --- |
| CCc1c(-c2nnc(CC3CCCCC3)o2)nn(-c2ccc(Cl)cc2Cl)c1-c1ccc(Br)cc1 [Example 55, 2-(5-(4-bromophenyl)-1-(2,4-dichlorophenyl)-4-ethyl-1H-pyrazol-3-yl)-5-(cyclohexylmethyl)-1,3,4-oxadiazole] | 10.3 nM | – |
| Cc1c(-c2nnc(CC3CCCCC3)o2)nn(-c2ccc(Cl)cc2Cl)c1-c1ccc(Br)cc1 [Example 56, 2-(5-(4-bromophenyl)-1-(2,4-dichlorophenyl)-4-methyl-1H-pyrazol-3-yl)-5-(cyclohexylmethyl)-1,3,4-oxadiazole] | 37.6 nM | – |
| Cc1c(-c2nnc(C(C)C3CCCC3)o2)nn(-c2ccc(Cl)cc2Cl)c1-c1ccc(Cl)cc1 (centres unmarked) [Example 61, 2-(5-(4-chlorophenyl)-1-(2,4-dichlorophenyl)-4-methyl-1H-pyrazol-3-yl)-5-(1-cyclopentylethyl)-1,3,4-oxadiazole] | 22.2 nM | – |
| Cc1c(-c2nnc(C(C)C3CCCCC3)o2)nn(-c2ccc(Cl)cc2Cl)c1-c1ccc(Cl)cc1 (centres unmarked) [Example 62, 2-(5-(4-chlorophenyl)-1-(2,4-dichlorophenyl)-4-methyl-1H-pyrazol-3-yl)-5-(1-cyclohexylethyl)-1,3,4-oxadiazole] | 51.7 nM | – |
| Cc1c(-c2nnc(C(C)(C)C3CCCC3)o2)nn(-c2ccc(Cl)cc2Cl)c1-c1ccc(Cl)cc1 [Example 63, 2-(5-(4-chlorophenyl)-1-(2,4-dichlorophenyl)-4-methyl-1H-pyrazol-3-yl)-5-(2-cyclopentylpropan-2-yl)-1,3,4-oxadiazole] | 19.1 nM | – |
| Cc1c(-c2nnc(C(C)(C)C3CCCCC3)o2)nn(-c2ccc(Cl)cc2Cl)c1-c1ccc(Cl)cc1 [Example 64, 2-(5-(4-chlorophenyl)-1-(2,4-dichlorophenyl)-4-methyl-1H-pyrazol-3-yl)-5-(2-cyclohexylpropan-2-yl)-1,3,4-oxadiazole] | 15.2 nM | – |
| Cc1c(-c2nnc(C3(C)CC3(Cl)Cl)o2)nn(-c2ccc(Cl)cc2Cl)c1-c1ccc(Cl)cc1 (centres unmarked) [Example 65, 2-(5-(4-chlorophenyl)-1-(2,4-dichlorophenyl)-4-methyl-1H-pyrazol-3-yl)-5-(2,2-dichloro-1-methylcyclopropyl)-1,3,4-oxadiazole] | 12.4 nM | – |
| Cc1c(-c2nnc(C3(c4ccc(Cl)cc4)CC3)o2)nn(-c2ccc(Cl)cc2Cl)c1-c1ccc(Cl)cc1 [Example 67, 2-(5-(4-chlorophenyl)-1-(2,4-dichlorophenyl)-4-methyl-1H-pyrazol-3-yl)-5-(1-(4-chlorophenyl)cyclopropyl)-1,3,4-oxadiazole] | 8.61 nM | – |
| Cc1c(-c2nnc(C3(c4ccccc4)CC3)o2)nn(-c2ccc(Cl)cc2Cl)c1-c1ccc(Cl)cc1 [Example 71, 2-(5-(4-chlorophenyl)-1-(2,4-dichlorophenyl)-4-methyl-1H-pyrazol-3-yl)-5-(1-phenylcyclopropyl)-1,3,4-oxadiazole] | 11 nM | – |
| Cc1c(-c2nnc(C(C)(C)Oc3ccccn3)o2)nn(-c2ccc(Cl)cc2Cl)c1-c1ccc(Cl)cc1 [Example 80, 2-(5-(4-chlorophenyl)-1-(2,4-dichlorophenyl)-4-methyl-1H-pyrazol-3-yl)-5-(2-(pyridin-2-yloxy)propan-2-yl)-1,3,4-oxadiazole] | 36.1 nM | – |
| C=CCOCC(C)(C)c1nnc(-c2nn(-c3ccc(Cl)cc3Cl)c(-c3ccc(Cl)cc3)c2C)o1 [Example 97, 2-(1-(allyloxy)-2-methylpropan-2-yl)-5-(5-(4-chlorophenyl)-1-(2,4-dichlorophenyl)-4-methyl-1H-pyrazol-3-yl)-1,3,4-oxadiazole] | 15.7 nM | – |
| COC(C)(C)c1nnc(-c2nn(-c3ccc(Cl)cc3Cl)c(-c3ccc(Cl)cc3)c2C)o1 [Example 98, 2-(5-(4-chlorophenyl)-1-(2,4-dichlorophenyl)-4-methyl-1H-pyrazol-3-yl)-5-(2-methoxypropan-2-yl)-1,3,4-oxadiazole] | 33.7 nM | – |
| Cc1c(-c2nnc(C3(c4ccc(Cl)cc4)CCC3)o2)nn(-c2ccc(Cl)cc2Cl)c1-c1ccc(Cl)cc1 [Example 110, 2-(5-(4-chlorophenyl)-1-(2,4-dichlorophenyl)-4-methyl-1H-pyrazol-3-yl)-5-(1-(4-chlorophenyl)cyclobutyl)-1,3,4-oxadiazole] | 13 nM | – |
| CCc1c(-c2nnc(C3(c4ccc(Cl)cc4)CC3)o2)nn(-c2ccc(Cl)cc2Cl)c1-c1ccc(Br)cc1 [Example 111, 2-(5-(4-bromophenyl)-1-(2,4-dichlorophenyl)-4-ethyl-1H-pyrazol-3-yl)-5-(1-(4-chlorophenyl)cyclopropyl)-1,3,4-oxadiazole] | 3.96 nM | – |
| Cc1c(-c2nnc(C3(c4ccc(Cl)cc4)CC3)o2)nn(-c2ccccc2Cl)c1-c1ccc(Cl)cc1 [Example 112, 2-(1-(2-chlorophenyl)-5-(4-chlorophenyl)-4-methyl-1H-pyrazol-3-yl)-5-(1-(4-chlorophenyl)cyclopropyl)-1,3,4-oxadiazole] | 7.4 nM | – |
| CCOC(C)(C)c1nnc(-c2nn(-c3ccc(Cl)cc3Cl)c(-c3ccc(Cl)cc3)c2C)o1 [Example 116, 2-(5-(4-chlorophenyl)-1-(2,4-dichlorophenyl)-4-methyl-1H-pyrazol-3-yl)-5-(2-ethoxypropan-2-yl)-1,3,4-oxadiazole] | – | 23.9 nM |
